The values that follow come from patent US8945832B2, “Treatment prediction involving HMGCR” (Atlas Antibodies AB, priority 2008, dated 2015).

Experiment [1] has as its system MCF-7 breast cancer cells. The note with it: MCF-7 cells; cited from earlier work.
The subject of experiment [2] is breast cancer. The note with it: cited from earlier work.
Experiment [3] relates to breast cancer. The note with it: 5 years tamoxifen compared to no adjuvant treatment; cited from earlier work.
The subject of experiment [4] is primary breast tumors. Briefly: Gene expression analysis of breast cancer: RFS by HMGCR mRNA level in tamoxifen treated patients (GSE 9893). Type of experiment: in vivo, human. From the text: Data was collected from a previously performed microarray study, Chanrion et al, based on a patient cohort of 155 primary breast tumors obtained from patients who had undergone initial surgery between 1989 and 2001 at the Cancer Research Center of Val d'Aurelle in Montpellier, the Bergonie' Institute in Bordeaux, or the Department of Obstetrics and Gynecology of Turin.
The median follow-up time for all patients was 5.5 years. Eight tumors were ER negative, and six of these tumors were progesterone receptor (PR) positive. No patient received neoadjuvant systemic chemotherapy. […] 121 patients also received adjuvant radiotherapy. Raw gene expression data and clinical data were downloaded from Gene Expression Omnibus (http://www.ncbi.nlm.nih.gov/GEO/) (accession number GSE 9893). The log ratio of gene expression values was used without further transformation. For statistical analysis HMGCR mRNA expression levels were analysed as a continuous variable.

Experiment [5] relates to breast cancer. Particulars: patients with ER positive tumors, irrespective of lymph node status; five years adjuvant; cited from earlier work.
The subject of experiment [6] is breast cancer. Particulars: cited from earlier work. This is another data set of the same source.
Experiment [7] has as its system breast cancer. Particulars: cited from earlier work. The source holds these as a separate data set.
Experiment [8] deals with stage II invasive breast cancer. Briefly: Randomized premenopausal cohort: recurrence free survival, adjuvant tamoxifen vs no adjuvant endocrine treatment, by HMGCR protein status (IHC on TMA). Type of experiment: in vivo, human. The note with it: for outcome (RFS) of HMGCR positive and ER negative vs HMGCR negative and ER positive patients: tamoxifen treated cohort. The protocol:
The inclusion criteria were pre-menopausal patients, or patients younger than 50 years, with stage II (pT2 N0 M0, pT1-2 N1 M0) invasive breast cancer treated by modified mastectomy or breast conserving surgery with axillary lymph node dissection. Post-operative radiotherapy (50 Gy) was administered after breastconserving surgery and all lymph node-positive patients received locoregional radiotherapy. […] The study design is described in detail elsewhere (Rydén L et al, Eur J Cancer, 2005, 41(2): 256-64). Ethical permission was obtained from the Local Ethics Committees at Lund and Linköping Universities.
Tissue blocks from 500 of the 564 patients could be retrieved for TMA-construction. All cases had been histopathologically re-evaluated on hematoxylin and eosin stained slides. TMA:s were constructed by sampling 2×0.6 mm cores per case from areas representative of invasive cancer, using an manual arraying device (MTA-1, Beecher Inc, WI, USA). […] IHC staining of ER and PR had been performed previously. In line with current clinical praxis, a cut-off at 10% positive nuclei was used to define hormone receptor positivity.
For statistical analyses, the cytoplasmic intensity (CI) level was evaluated, in line with what is described in Examples, Section 3 above. […] Two categories were defined: “HMGCR high” corresponding to CI=weak, moderate and strong and “HMGCR low” corresponding to CI=absent This classification of samples was used for RFS analysis according to the Kaplan-Meier estimator, and the log-rank test was used to compare survival in different strata. ER and PR negativity was defined as <10% positively staining nuclei, according to current clinical guidelines in Sweden. All statistical tests were two-sided, and p-values of <0.05 were considered significant. All calculations were made with the statistical package SPSS 17.0 (SPSS Inc. Illinois, USA).

Read-outs that look alike come from different tables or passages of the source.

`CC[C@H](C)C(=O)O[C@H]1CCC=C2C=C[C@H](C)[C@H](CC[C@@H]3C[C@@H](O)CC(=O)O3)[C@H]21` [mevastatin]: in experiment [1], the “induction of HMGCR activity” value was 10- to 15 fold and the “induction of HMGCR mRNA expression” value is 2.5- to 3.5 fold.
As for `CC/C(=C(\c1ccccc1)c1ccc(OCCN(C)C)cc1)c1ccccc1` [tamoxifen], the entries for the “disease free survival, tamoxifen vs no adjuvant treatment” value in experiment [2] (older patients (≧60 years) with ERα+/PR+ tumors) and in experiment [2] (younger patients (<60 years)) were “significantly longer disease free survival” and “no significant effect”, respectively. The “reduction in breast cancer specific mortality” value in experiment [3] is 34%. For the same compound, the “reduction in disease recurrence” value in experiment [3] is on record as 41%. Moreover, the “RFS of high vs low HMGCR mRNA expression” value is “improved RFS” in experiment [4] (ER positive subjects only, adjuvant tamoxifen, FIG. 13b) and “significantly better RFS” in experiment [4] (all 155 patients, adjuvant tamoxifen 20 mg daily for 5 years, FIG. 13a). In experiment [5], the breast cancer mortality result is recorded as “reduces the breast cancer mortality”. The “ERα positive patients who do not respond to tamoxifen treatment” value in experiment [6] is 30-40%. Further, the “recurrence-free and overall survival in tamoxifen treated patients” value in experiment [7] (high expression (>75% nuclear fraction) of PR, irrespectively of ERα status) is “increased recurrence-free and overall survival”. For the same compound, the “effect from tamoxifen treatment” value in experiment [7] (lower PR level, <75%) was “no positive effect”. The “RFS of HMGCR high vs HMGCR low category” value is reported as “significantly better RFS” in experiment [8] (ER positive tamoxifen treated subjects, FIG. 2a) and “significantly better RFS” in experiment [8] (patients treated with tamoxifen, FIG. 1a, p=0.001). The “effect of tamoxifen treatment on recurrence free survival” value in experiment [8] (HMGCR negative and ER negative subjects, FIG. 10b) is reported as “no positive effect”; in experiment [8] (HMGCR positive and ER negative subjects, FIG. 9a), “improved survival”; in experiment [8] (HMGCR positive and ER negative, lymph node positive patients, FIG. 9b) it was “further enhanced”; in experiment [8] (HMGCR positive or ER positive subjects, FIG. 10a), “significantly positive effect”; in experiment [8] (patients with HMGCR high tumors, irrespective of ER status, tamoxifen vs no adjuvant endocrine treatment, FIG. 8a) it was “significantly improved survival”; in experiment [8] (patients with HMGCR low tumors, irrespective of ER status, FIG. 8b), “no impact on survival”. Moreover, the “tamoxifen impact on survival (RFS)” value in experiment [8] (HMGCR positive and PR negative subjects, FIG. 12, not statistically significant) is reported as “trend of tamoxifen impact on survival”. For the same compound, the “response to tamoxifen treatment (RFS)” value is listed as “no response” in experiment [8] (PR negative and HMGCR negative subjects, FIG. 11b); “significant response” in experiment [8] (PR positive and HMGCR positive subjects, FIG. 11a). In experiment [8] (lymph node positive patients who received tamoxifen, FIG. 4a, p=0.001), the “RFS associated with HMGCR expression” value is recorded as “improved RFS”. The “outcome (RFS) of HMGCR positive and ER negative vs HMGCR negative and ER positive patients” value in experiment [8] (node positive subjects, FIG. 6a) is on record as “better outcome”; in experiment [8] (FIG. 3a), “better outcome”. The “effect of HMGCR level on RFS” value in experiment [8] (tamoxifen treated ER negative subjects, FIG. 7a) is recorded as “positive effect on RFS”.
